Measured values: ChEMBL document CHEMBL4219131, “Design and synthesis of estrogen receptor ligands with a 4-heterocycle-4-phenylheptane skeleton” (Bioorg Med Chem, 2018)
Calls of active or inactive are those of the source. The calls are words filed in the database; no cut-off is given here.

What follows are compounds tested against T1, Estrogen receptor (Homo sapiens, UniProt P03372) (assay: Agonist activity at recombinant human GAL4-fused ERalpha expressed in HEk293 cells by luciferase reporter gene assay).
T1 sequence (P03372 whole entry): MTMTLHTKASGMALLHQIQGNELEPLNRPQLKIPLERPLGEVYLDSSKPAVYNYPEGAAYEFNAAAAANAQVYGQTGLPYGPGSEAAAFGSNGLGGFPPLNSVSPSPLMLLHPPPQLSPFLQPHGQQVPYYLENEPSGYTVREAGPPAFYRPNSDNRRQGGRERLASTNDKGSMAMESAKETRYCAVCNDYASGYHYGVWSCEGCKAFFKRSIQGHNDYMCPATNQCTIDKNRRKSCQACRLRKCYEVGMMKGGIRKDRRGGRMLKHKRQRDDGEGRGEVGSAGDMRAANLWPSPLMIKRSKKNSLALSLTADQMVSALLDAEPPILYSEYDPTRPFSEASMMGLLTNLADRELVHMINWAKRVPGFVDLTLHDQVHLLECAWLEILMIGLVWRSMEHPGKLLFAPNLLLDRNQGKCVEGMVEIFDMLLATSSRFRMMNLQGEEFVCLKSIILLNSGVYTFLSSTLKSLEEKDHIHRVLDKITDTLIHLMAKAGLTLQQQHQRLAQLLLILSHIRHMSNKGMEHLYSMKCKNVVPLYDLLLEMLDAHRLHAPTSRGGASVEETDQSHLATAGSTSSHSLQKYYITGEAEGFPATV
Type: cell-based
Work on `CCCC(CCC)(c1ccc(O)c(C)c1)c1cc(C)cs1` yielded an EC50 of over 30 µM. `CCCC(CCC)(c1ccc(O)c(C)c1)c1cccs1` gave an EC50 of over 30 µM.

These compounds were tested against T1, Estrogen receptor (assay: not given).
For `CCCC(CCC)(c1ccc(O)c(C)c1)c1ccc(C(=O)OCC)[nH]1`, the IC50 was 0.45 µM.

What follows are compounds tested against T2, Estrogen receptor (Homo sapiens) (UniProt P03372) (assay: Agonist activity at recombinant human GAL4-fused ERalpha expressed in HEk293 cells at 30 uM by luciferase reporter gene assay).
T2 sequence (whole entry): T1 sequence (P03372 whole entry)
Type: cell-based
With `CCCC(CCC)(c1ccc(O)c(C)c1)c1ccc(C(=O)O)n1C` the Activity was “inactive”. In the case of `CCCC(CCC)(c1ccc(O)c(C)c1)c1c[nH]c2cc(OCc3ccccc3)ccc12`, the Activity is reported as “inactive”. In the case of `CCCC(CCC)(c1ccc(O)c(C)c1)c1ccc(C(=O)O)[nH]1`, the Activity is reported as “inactive”. For `CCCC(CCC)(c1ccc(O)c(C)c1)c1ccc(C(=O)OCC)[nH]1`, the Activity was “inactive”. For `CCCC(CCC)(c1ccc(O)c(C)c1)c1ccc(C(=O)OCC)n1C`, the Activity was “inactive”. With `CCCC(CCC)(c1ccc(O)c(C)c1)c1ccc(O)c(C)c1` the Activity was “inactive”. For `CCCC(CCC)(c1ccc(O)c(C)c1)c1c[nH]c2cccc(OCc3ccccc3)c12`, the Activity was “inactive”.

The compounds below were run against T1, Estrogen receptor (assay: biochemical).
Description: Displacement of Fluormone ES2 from full length recombinant human untagged ERalpha expressed in Sf insect cells by fluorescence polarization assay
`CCCC(CCC)(c1ccc(O)c(C)c1)c1ccc(C(=O)O)n1C` gave an IC50 of over 10 µM. `CCCC(CCC)(c1ccc(O)c(C)c1)c1cc(C)cs1` showed an IC50 of 1.13 µM. For `CCCC(CCC)(c1ccc(O)c(C)c1)c1cccs1`, the IC50 was 4.68 µM. `CCCC(CCC)(c1ccc(O)c(C)c1)c1c[nH]c2cc(OCc3ccccc3)ccc12` gave an IC50 of 0.613 µM. `CCCC(CCC)(c1ccc(O)c(C)c1)c1ccc(C(=O)O)[nH]1` gave an IC50 of over 10 µM. In the case of `CCCC(CCC)(c1ccc(O)c(C)c1)c1ccc(C(=O)OCC)[nH]1`, the IC50 is reported as 0.195 µM. `CCCC(CCC)(c1ccc(O)c(C)c1)c1ccc(C(=O)OCC)n1C` was tested, and the IC50 was 1.04 µM. `CCCC(CCC)(c1ccc(O)c(C)c1)c1c[nH]c2cccc(OCc3ccccc3)c12` was tested, and the IC50 was over 10 µM.

These compounds were tested against T2, Estrogen receptor (Homo sapiens) (assay: Antagonist activity at ERalpha (unknown origin) expressed in human MCF7 cells assessed as inhibition of E2-induced response at 10 uM by dual luciferase reporter gene assay).
Type: cell-based
In the case of `CCCC(CCC)(c1ccc(O)c(C)c1)c1ccc(C(=O)O)n1C`, the inhibition is reported as “inactive”. In the case of `CCCC(CCC)(c1ccc(O)c(C)c1)c1cc(C)cs1`, the inhibition is reported as “inactive”. With `CCCC(CCC)(c1ccc(O)c(C)c1)c1cccs1` the inhibition was “inactive”. `CCCC(CCC)(c1ccc(O)c(C)c1)c1c[nH]c2cc(OCc3ccccc3)ccc12` showed an inhibition of 44%. For `CCCC(CCC)(c1ccc(O)c(C)c1)c1ccc(C(=O)O)[nH]1`, the inhibition was “inactive”. `CCCC(CCC)(c1ccc(O)c(C)c1)c1ccc(C(=O)OCC)n1C` was tested, and the inhibition was 41%. `CCCC(CCC)(c1ccc(O)c(C)c1)c1c[nH]c2cccc(OCc3ccccc3)c12` was tested, and the inhibition was “inactive”.
